Results: patent US5877185A, “Synergistic compositions useful as anti-tumor agents” (priority 1995, dated 1999)

Key:
MDA-468 = assay: cytotoxicity of INO2 BA with and without BSO, MDA-468; format: cell-based; conditions: Homo sapiens
Description: (§1) The concentration of BSO was 1 mM for all cell lines except HT 144, where the concentration was 0.25 mM. Cells were seeded in the recommended growth medium at a density of 1.5×10^4 cell/cm^2 into 2 cm^2 wells. Drugs were added simultaneously 4 hours after seeding, and incubation was continued for 48 hours at 37° C. in a 5% CO2 atmosphere. For assessment of drug effects cells were detached by trypsinization and counted in a hemacytometer.
(§2) Cell lines Nos. 1-4 were obtained from Dr. C. Benz, University of California, San Francisco. MDA 468 and MCF-7 human mammary cancer lines, MCF-7-B-ADR drug-resistant mammary cancer line, Du 145 drug-resistant human prostate cancer line, HT 144 human melanoma cell line, Hep-G2 human hepatocellular carcinoma line, and PC-12 rat pheochromocytoma line were obtained from the University of California Cell Culture Facility.

L-1210 cells = assay: time course of cell killing alone and with BSO, L-1210; format: cell-based, murine; conditions: L-1210, 2-3 day period; 1 mM BSO
Description: (§3) Molt 4-cells were seeded at a density of 0.05×10^6 cell/ml in the recommended growth medium in the absence or the presence of drugs as indicated. Cells were incubated at 37° C. in a 5% CO2 atmosphere and proliferation was monitored in 14 hr. by cell counting in a hemacytometer. .smallcircle., untreated control; .circle-solid., treated with 4 μM 4-iodo-3-nitrobenzoic acid; .gradient., treated with 1 mM BSO; .tangle-soliddn., treated with 4 μM-iodo-3-nitrobenzoic acid and 1 mM BSO; .quadrature., treated with 4 μM 4-INO2 BA; .box-solid., treated with 1 mM BSO; .gradient., treated with 4 μM INO2 BA and 1 mM BSO. L-1210 cells were seeded at a density of 0.05×10^6 cells/ml either from untreated stock suspensions or from 24-hr. pretreated (0.2×10^6 cells/ml) suspensions. .smallcircle., untreated control; .circle-solid., treated with […] NOBA; .gradient., treated with 1 mM BSO; .tangle-soliddn., 24-hr pretreatment with 1 mM BSO then treated with 4 μM NOBA.
(§4) A time course of the cell killings by 4-iodo-3-nitrobenzoic acid, INO2 BA and NOBA, each alone and in combination with BSO was obtained. Molt-4 cells were seeded at a density of 0.05×10^6 cells/ml in the recommended growth medium in the absence or presence of drugs as indicated in FIG. 3. Drugs were added to the wells immediately after seeding from 10-40 mM stock solution in DMSO. BSO was added from a 100 mM aqueous stock solution. Cells were incubated at 37° C. in a 5% CO2 atmosphere and proliferation was monitored in 14 hours by cell counting in a hemacytometer.

[1] = non-toxicity in hamsters, intraperitoneal; format: in vivo
SIVmac in CEM ×174 cells = assay: SIVmac replication in CEM ×174 cells, reverse transcriptase assay; format: cell-based, SIV; conditions: for effect on SIVmac replication in pre-infected cells: cells pre-infected one day prior to treatment
Description: CEM ×174 cells (3×10^5 /ml) were infected with 3.75 TCID50 /ml (50% tissue culture infectious dosage per ml of cell suspension) stock solution of SIVmac239 or virus isolates from SIVmac239-infected rhesus macaques on day 0. Uniform infection of cells was ensured by the infection of one cell population only per virus preparation. Three days post-infection, the cells were distributed (500 μl/well) into individual wells of a 24-well plate. Fresh medium containing INO2 BA concentrations ranging from 0 to 300 μM and/or BSO concentrations ranging from 0 to 0.25 mM were added to establish final 1-ml reaction volumes, and the cultures were further incubated for 4 days. The wells were then replenished with fresh CEM ×174 cells (3×10^5 /ml), INO2 BA and/or BSO were re-added at the same concentrations as in the original incubates, and incubation was continued for an additional 3 days. This procedure intends to mimic conditions of in vivo chemotherapy. Cell viability and virus titers in the supernatant were determined on day 10 (3 days after the addition of new cells) by the tetrazolium (MTT) method of Hansen et al., J. Immunol. Methods 119:208-210 (1982) and by the SIV p27 and reverse transcriptase (RT) assays described by Chuang et al., FEBS Lett. 326:140-144 (1993), respectively.
To evaluate the activity of SIV reverse transcriptase, 10 μl of infected cell supernatant was added to a reaction mixture containing 50 mM Tris-HCl (pH 8.0), 5 mM MgCl2, 10 mM dithiothreitol, 20 mM KCl, and 1% Triton X-100 in a total volume of 50 μl. Poly(rA):oligo (dT)12-18 was present at 100 μg/ml and 2.4 μM [^3 H]TTP was used. The reaction mixtures were incubated at 37° C. for 1 hr and the TCA-precipitableradioactivity was filtered onto nitrocellulose filters which were then washed, dried and counted.
The effect of INO2 BA on SIVmac replication in CEM ×174 cells that were pre-infected with virus for one day prior to treatment with INO2 BA are shown in FIG. 6. The cell culture and SIV reverse transcription assay were performed as described in Example XIV.

L 1210 = assay: cytotoxicity of INO2 BA with and without BSO, L 1210; format: cell-based, murine; conditions: Mus musculus, L1210, INO2 BA alone, 48 hours
Description: as §1, §2

Molt-4 cells = assay: time course of cell killing alone and with BSO, Molt-4; format: cell-based; conditions: Molt-4, 2-3 day period; 4 μM drug, 1 mM BSO
Description: as §3, §4

CEM-4 = assay: cytotoxicity of INO2 BA with and without BSO, CEM-4; format: cell-based; conditions: Homo sapiens
Description: as §1, §2

AA-2 leukemia cells = assay: cytocidal effect in combination with ascorbate; conditions: for protection against apoptosis-inducing action: 160 μM ascorbate, 18 hr of drug exposure; for cell number Day 1 / cell number Day 2: alone or with ascorbate 160 μM; for cell number Day 1: 18 hr; for cell number Day 2: 42 hr
Description: Because of the in vitro reactivity of the nitroso group of INOBA with both ascorbate and GSH, the apoptosis-inducing effect of NOBA with the action of the prodrug INO2 BA in the presence of ascorbate, added simultaneously with both drugs was compared.
AA-2 cells were seeded at a density of 0.2×10^6 cells/ml. Drugs and/or sodium ascorbate were added at the time of seeding, and cells were counted by hemacytometer after incubation (37° C., 5% CO^2) for 18 hr (Day 1) and for 42 hr (Day 2). Viability was evaluated by Trypan Blue exclusion.

HL 60 = assay: cytotoxicity of INO2 BA with and without BSO, HL 60; format: cell-based; conditions: Homo sapiens, INO2 BA alone, 48 hours
Description: as §1, §2

[2] = reduction by GSH and ascorbate in in vitro chemical tests; format: physicochemical
neutrophil granulocytes = conditions: tumoricidal concentrations; cited from earlier work
[3] = 42 h, read-out: dead cells Day 2

With `NC(=O)c1ccc(I)c([N+](=O)[O-])c1` [INO2 BA, 4-iodo-3-nitrobenzamide] as the molecule, how does the IC100 (MDA-468; 48 h, read-out: LD100) read?
Its IC100 is 180 µM.

And the IC50 (MDA-468; INO2 BA alone, 48 hours, read-out: I50)?
Its IC50 is 80 µM.

And the “effect on cell proliferation” value (L-1210 cells)?
The value was “no significant effect”.

What about the toxic effects ([1]; 200 mg/kg intraperitoneally daily for 12 days) of the same molecule?
The toxic effects was “no toxic effects”.

And the toxic effects ([1]; 200 mg/kg intraperitoneally daily for 14 days, twelve hamsters)?
Its toxic effects is “without toxic effects”.

What about the reverse transcriptase activity (SIVmac in CEM ×174 cells; SIV-infected CEM ×174 cells, FIG. 6) of the same molecule?
Its reverse transcriptase activity is “greatly depressed”.

And the “effect on SIVmac replication in pre-infected cells” value (SIVmac in CEM ×174 cells)?
The value was “effective even when incubated with cells that have been infected”.

What about the IC50 (L 1210; read-out: I50) of the same molecule?
The IC50 was 128 µM.

And the IC100 (L 1210; read-out: LD100)?
The IC100 was 256 µM.

What about the “effect on cell proliferation” value (Molt-4 cells) of the same molecule?
The value was “no significant effect”.

What about the IC100 (CEM-4; CEM-4, 48 h, read-out: LD100) of the same molecule?
Its IC100 is 196 µM.

What about the IC50 (CEM-4; CEM-4, INO2 BA alone, 48 hours, read-out: I50) of the same molecule?
The IC50 was 80 µM.

And the “protection against apoptosis-inducing action” value (AA-2 leukemia cells)?
Its value is “did not prevent apoptosis”.

What about the cytotoxicity at 16 µM (AA-2 leukemia cells; [3]) of the same molecule?
The cytotoxicity at 16 µM was 40%.

And the “cell number Day 1” value (AA-2 leukemia cells; INO2 BA 16 μM)?
Its value is 250000 mL⁻¹.

What about the “cell number Day 2” value (AA-2 leukemia cells; INO2 BA 16 μM) of the same molecule?
Its value is 450000 mL⁻¹.

What about the IC50 (HL 60; read-out: I50) of the same molecule?
Its IC50 is 70 µM.

What about the IC100 (HL 60; read-out: LD100) of the same molecule?
The IC100 was 125 µM.

With `NC(=O)c1cccc(N=O)c1` [NOBA, 3-nitrosobenzamide] as the molecule, how does the “effect on cell proliferation” value (L-1210 cells) read?
Its value is “no significant effect”.

And the “reduction to the corresponding hydroxyl amines” value [2]?
Its value is “rapidly reduced”.

What about the “effect on SIVmac replication in pre-infected cells” value (SIVmac in CEM ×174 cells) of the same molecule?
The value was “requires pre-incubation with cells prior to viral infection”.

What about the “effect on cell proliferation” value (Molt-4 cells) of the same molecule?
Its value is “no significant effect”.

What about the “protection against apoptosis-inducing action” value (AA-2 leukemia cells) of the same molecule?
Its value is “completely protected”.

And the cytotoxicity at 32 µM (AA-2 leukemia cells; [3])?
The cytotoxicity at 32 µM was 50%.

And the “cell number Day 1” value (AA-2 leukemia cells; NOBA 32 μM)?
Its value is 290000 mL⁻¹.

What about the “cell number Day 2” value (AA-2 leukemia cells; NOBA 32 μM) of the same molecule?
Its value is 370000 mL⁻¹.

And the “effect on superoxide formation by neutrophil granulocytes” value (neutrophil granulocytes)?
The value was “relatively harmless”.
